Measured values: ChEMBL document CHEMBL2073903, “The expression of P-glycoprotein does influence the distribution of novel fluorescent compounds in solid tumour models” (Br J Cancer, 2003)

Biological target: ATP-dependent translocase ABCB1 (Homo sapiens, UniProt P08183)
Test: TP_TRANSPORTER: ATPase assay in reconstituted P-gp
Format: functional

Chain of ATP-dependent translocase ABCB1 (P08183 whole entry): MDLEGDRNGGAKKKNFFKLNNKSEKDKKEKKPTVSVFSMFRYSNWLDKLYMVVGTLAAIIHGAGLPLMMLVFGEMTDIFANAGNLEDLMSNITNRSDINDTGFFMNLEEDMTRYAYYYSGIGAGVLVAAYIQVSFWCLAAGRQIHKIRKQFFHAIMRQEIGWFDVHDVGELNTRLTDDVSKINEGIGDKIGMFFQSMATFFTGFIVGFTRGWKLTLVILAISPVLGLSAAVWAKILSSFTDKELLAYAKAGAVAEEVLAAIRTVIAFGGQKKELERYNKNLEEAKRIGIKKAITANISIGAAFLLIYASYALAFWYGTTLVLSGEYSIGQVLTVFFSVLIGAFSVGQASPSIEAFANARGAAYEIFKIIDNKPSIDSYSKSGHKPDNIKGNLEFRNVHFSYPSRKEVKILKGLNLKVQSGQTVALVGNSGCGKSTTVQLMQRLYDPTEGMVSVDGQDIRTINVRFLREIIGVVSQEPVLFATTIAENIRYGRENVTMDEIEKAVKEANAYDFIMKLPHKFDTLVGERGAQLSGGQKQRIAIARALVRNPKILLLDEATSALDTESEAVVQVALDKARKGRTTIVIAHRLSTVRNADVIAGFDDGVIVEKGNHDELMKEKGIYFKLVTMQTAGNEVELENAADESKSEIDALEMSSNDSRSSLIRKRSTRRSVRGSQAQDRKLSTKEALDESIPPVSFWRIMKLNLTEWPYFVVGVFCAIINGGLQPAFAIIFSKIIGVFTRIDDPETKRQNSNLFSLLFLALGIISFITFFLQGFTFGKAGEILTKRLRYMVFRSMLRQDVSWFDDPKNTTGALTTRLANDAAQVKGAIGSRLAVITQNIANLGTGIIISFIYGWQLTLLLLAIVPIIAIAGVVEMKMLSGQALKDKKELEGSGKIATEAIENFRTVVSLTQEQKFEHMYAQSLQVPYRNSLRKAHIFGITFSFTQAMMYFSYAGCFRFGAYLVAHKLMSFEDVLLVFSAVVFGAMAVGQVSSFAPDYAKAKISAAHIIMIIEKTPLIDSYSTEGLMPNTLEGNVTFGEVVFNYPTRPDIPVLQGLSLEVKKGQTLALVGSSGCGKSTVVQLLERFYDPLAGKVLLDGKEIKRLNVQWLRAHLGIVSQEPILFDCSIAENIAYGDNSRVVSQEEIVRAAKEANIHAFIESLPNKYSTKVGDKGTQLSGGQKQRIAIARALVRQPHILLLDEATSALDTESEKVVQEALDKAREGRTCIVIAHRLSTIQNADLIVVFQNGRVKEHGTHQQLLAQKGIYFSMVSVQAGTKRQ

In the case of CC(=O)O[C@H]1C(=O)[C@@]2(C)C([C@H](OC(=O)c3ccccc3)[C@]3(O)C[C@H](OC(=O)[C@H](O)[C@@H](NC(=O)CCC4=[N+]5C(=Cc6c(C)cc(C)n6[B-]5(F)F)C=C4)c4ccccc4)C(C)=C1C3(C)C)[C@]1(OC(C)=O)CO[C@@H]1C[C@@H]2O (stereo partly specified), the Activity is reported as “substrate [+]”.
